From ChEMBL document CHEMBL2380302, “Synthesis of 3-O-propargylated betulinic acid and its 1,2,3-triazoles as potential apoptotic agents” (Eur J Med Chem, 2013)

Tests used:
HCT-15 [1] = experiment: Cytotoxicity against human HCT15 cells at 10 uM after 48 hrs by SRB assay; format: functional; conditions: HCT-15, 48 h, read-out: GI
SF-295 [2] = experiment: Cytotoxicity against human SF295 cells at 10 uM after 48 hrs by SRB assay; format: functional; conditions: SF-295, 48 h, read-out: GI
A549 [3] = experiment: Cytotoxicity against human A549 cells at 10 uM after 48 hrs by SRB assay; format: functional; conditions: A549, 48 h, read-out: GI
MCF7 [4] = experiment: Cytotoxicity against human MCF7 cells at 10 uM after 48 hrs by SRB assay; format: functional; conditions: MCF7, 48 h, read-out: GI
HEp-2 [5] = experiment: Cytotoxicity against human Hep2 cells at 10 uM after 48 hrs by SRB assay; format: functional; conditions: HEp-2, 48 h, read-out: GI
PC-3 [6] = experiment: Cytotoxicity against human PC3 cells at 10 uM after 48 hrs by SRB assay; format: functional; conditions: PC-3, 48 h, read-out: GI
DU-145 [7] = experiment: Cytotoxicity against human DU145 cells at 10 uM after 48 hrs by SRB assay; format: functional; conditions: DU-145, 48 h, read-out: GI
HL-60 [8] = experiment: Cytotoxicity against human HL60 cells at 10 uM after 48 hrs by SRB assay; format: functional; conditions: HL-60, 48 h, read-out: GI
THP-1 [9] = experiment: Cytotoxicity against human THP1 cells at 10 uM after 48 hrs by SRB assay; format: functional; conditions: THP-1, 48 h, read-out: GI
HCT-15 [10] = experiment: Cytotoxicity against human HCT15 cells at 30 uM after 48 hrs by SRB assay; format: functional; conditions: HCT-15, 48 h, read-out: GI
SF-295 [11] = experiment: Cytotoxicity against human SF295 cells at 30 uM after 48 hrs by SRB assay; format: functional; conditions: SF-295, 48 h, read-out: GI
A549 [12] = experiment: Cytotoxicity against human A549 cells at 30 uM after 48 hrs by SRB assay; format: functional; conditions: A549, 48 h, read-out: GI
MCF7 [13] = experiment: Cytotoxicity against human MCF7 cells at 30 uM after 48 hrs by SRB assay; format: functional; conditions: MCF7, 48 h, read-out: GI
HEp-2 [14] = experiment: Cytotoxicity against human Hep2 cells at 30 uM after 48 hrs by SRB assay; format: functional; conditions: HEp-2, 48 h, read-out: GI
PC-3 [15] = experiment: Cytotoxicity against human PC3 cells at 30 uM after 48 hrs by SRB assay; format: functional; conditions: PC-3, 48 h, read-out: GI
DU-145 [16] = experiment: Cytotoxicity against human DU145 cells at 30 uM after 48 hrs by SRB assay; format: functional; conditions: DU-145, 48 h, read-out: GI
HL-60 [17] = experiment: Cytotoxicity against human HL60 cells at 30 uM after 48 hrs by SRB assay; format: functional; conditions: HL-60, 48 h, read-out: GI
THP-1 [18] = experiment: Cytotoxicity against human THP1 cells at 30 uM after 48 hrs by SRB assay; format: functional; conditions: THP-1, 48 h, read-out: GI
HCT-15 [19] = experiment: Cytotoxicity against human HCT15 cells at 50 uM after 48 hrs by SRB assay; format: functional; conditions: HCT-15, 48 h, read-out: GI
SF-295 [20] = experiment: Cytotoxicity against human SF295 cells at 50 uM after 48 hrs by SRB assay; format: functional; conditions: SF-295, 48 h, read-out: GI
A549 [21] = experiment: Cytotoxicity against human A549 cells at 50 uM after 48 hrs by SRB assay; format: functional; conditions: A549, 48 h, read-out: GI
MCF7 [22] = experiment: Cytotoxicity against human MCF7 cells at 50 uM after 48 hrs by SRB assay; format: functional; conditions: MCF7, 48 h, read-out: GI
HEp-2 [23] = experiment: Cytotoxicity against human Hep2 cells at 50 uM after 48 hrs by SRB assay; format: functional; conditions: HEp-2, 48 h, read-out: GI
PC-3 [24] = experiment: Cytotoxicity against human PC3 cells at 50 uM after 48 hrs by SRB assay; format: functional; conditions: PC-3, 48 h, read-out: GI
HL-60 [25] = experiment: Cytotoxicity against human HL60 cells at 50 uM after 48 hrs by SRB assay; format: functional; conditions: HL-60, 48 h, read-out: GI
DU-145 [26] = experiment: Cytotoxicity against human DU145 cells at 50 uM after 48 hrs by SRB assay; format: functional; conditions: DU-145, 48 h, read-out: GI
THP-1 [27] = experiment: Cytotoxicity against human THP1 cells at 50 uM after 48 hrs by SRB assay; format: functional; conditions: THP-1, 48 h, read-out: GI
HCT-15 [28] = experiment: Cytotoxicity against human HCT15 cells after 48 hrs by SRB assay; format: functional, cell-based; conditions: HCT-15, 48 h
A549 [29] = experiment: Cytotoxicity against human A549 cells after 48 hrs by SRB assay; format: functional, cell-based; conditions: A549, 48 h
SF-295 [30] = experiment: Cytotoxicity against human SF295 cells after 48 hrs by SRB assay; format: functional, cell-based; conditions: SF-295, 48 h
MCF7 [31] = experiment: Cytotoxicity against human MCF7 cells after 48 hrs by SRB assay; format: functional, cell-based; conditions: MCF7, 48 h
HEp-2 [32] = experiment: Cytotoxicity against human Hep2 cells after 48 hrs by SRB assay; format: functional, cell-based; conditions: HEp-2, 48 h
PC-3 [33] = experiment: Cytotoxicity against human PC3 cells after 48 hrs by SRB assay; format: functional, cell-based; conditions: PC-3, 48 h
DU-145 [34] = experiment: Cytotoxicity against human DU145 cells after 48 hrs by SRB assay; format: functional, cell-based; conditions: DU-145, 48 h
HL-60 [35] = experiment: Cytotoxicity against human HL60 cells after 48 hrs by SRB assay; format: functional, cell-based; conditions: HL-60, 48 h
THP-1 [36] = experiment: Cytotoxicity against human THP1 cells after 48 hrs by SRB assay; format: functional, cell-based; conditions: THP-1, 48 h

Row | SMILES | inhibition of growth at 10 µM (HCT-15 [1]) [%] | inhibition of growth at 10 µM (SF-295 [2]) [%] | inhibition of growth at 10 µM (A549 [3]) [%] | inhibition of growth at 10 µM (MCF7 [4]) [%] | inhibition of growth at 10 µM (HEp-2 [5]) [%] | inhibition of growth at 10 µM (PC-3 [6]) [%] | inhibition of growth at 10 µM (DU-145 [7]) [%] | inhibition of growth at 10 µM (HL-60 [8]) [%] | inhibition of growth at 10 µM (THP-1 [9]) [%] | inhibition of growth at 30 µM (HCT-15 [10]) [%] | inhibition of growth at 30 µM (SF-295 [11]) [%] | inhibition of growth at 30 µM (A549 [12]) [%] | inhibition of growth at 30 µM (MCF7 [13]) [%] | inhibition of growth at 30 µM (HEp-2 [14]) [%] | inhibition of growth at 30 µM (PC-3 [15]) [%] | inhibition of growth at 30 µM (DU-145 [16]) [%] | inhibition of growth at 30 µM (HL-60 [17]) [%] | inhibition of growth at 30 µM (THP-1 [18]) [%] | inhibition of growth at 50 µM (HCT-15 [19]) [%] | inhibition of growth at 50 µM (SF-295 [20]) [%] | further results
1 | C=C(C)[C@@H]1CC[C@]2(C(=O)O)CC[C@]3(C)[C@H](CC[C@@H]4[C@@]5(C)CC[C@H](O)C(C)(C)[C@@H]5CC[C@]43C)[C@@H]12 [BETULINIC ACID] | 45 | 11 | 20 | 7 | 41 | 8 | 12 | 35 | 30 | 80 | 88 | 48 | 36 | 66 | 29 | 70 | 73 | 69 | 94 | 99 | inhibition of growth at 50 µM (A549 [21]): 74%; inhibition of growth at 50 µM (MCF7 [22]): 80%; inhibition of growth at 50 µM (HEp-2 [23]): 78%; inhibition of growth at 50 µM (PC-3 [24]): 94%; inhibition of growth at 50 µM (HL-60 [25]): 98%; inhibition of growth at 50 µM (DU-145 [26]): 84%; inhibition of growth at 50 µM (THP-1 [27]): 99%; IC50 (HCT-15 [28]): 12 µM; IC50 (A549 [29]): 31 µM; IC50 (SF-295 [30]): 22 µM; IC50 (MCF7 [31]): 37 µM; IC50 (HEp-2 [32]): 16 µM; IC50 (PC-3 [33]): 37 µM; IC50 (DU-145 [34]): 22 µM; IC50 (HL-60 [35]): 17 µM; IC50 (THP-1 [36]): 20 µM
2 | C=C(C)[C@@H]1CC[C@]2(C(=O)O)CC[C@]3(C)[C@H](CC[C@@H]4[C@@]5(C)CC[C@H](OCc6cn(-c7cc(C)cc(O)c7)nn6)C(C)(C)[C@@H]5CC[C@]43C)[C@@H]12 | 28 | 23 | 23 | 70 | 9 | 47 | 10 | 24 | 15 | 56 | 75 | 59 | 96 | 25 | 74 | 51 | 90 | 85 | 66 | 90 | inhibition of growth at 50 µM (A549 [21]): 71%; inhibition of growth at 50 µM (MCF7 [22]): 96%; inhibition of growth at 50 µM (HEp-2 [23]): 42%; inhibition of growth at 50 µM (PC-3 [24]): 91%; inhibition of growth at 50 µM (HL-60 [25]): 98%; inhibition of growth at 50 µM (DU-145 [26]): 97%; inhibition of growth at 50 µM (THP-1 [27]): 99%; IC50 (HCT-15 [28]): 26 µM; IC50 (A549 [29]): 26 µM; IC50 (SF-295 [30]): 19 µM; IC50 (MCF7 [31]): 3.8 µM; IC50 (HEp-2 [32]): > 50 µM; IC50 (PC-3 [33]): 13 µM; IC50 (DU-145 [34]): 28 µM; IC50 (HL-60 [35]): 14 µM; IC50 (THP-1 [36]): 18 µM
